Key:
in vitro = details: human, microsomes
Bovine Chymotrypsin = Bovine Chymotrypsin (Bos taurus, UniProt P00766)
Human Thrombin = Human Thrombin (Homo sapiens, UniProt P00734)
Human Elastase = details: pH 8.0, room temperature, 50 mM Tris, 100 mM NaCl, Brij 35

Structure (SMILES)	microsomal CLint (in vitro) [µL/min/mg]	IC50 (Bovine Chymotrypsin) [µM]	IC50 (Human Thrombin) [µM]	IC50 (Human Elastase) [µM]
COc1cccc2[nH]c(C(=O)N[C@@H](CC(C)C)C(=O)N[C@@H](C[C@@H]3CCNC3=O)C(=O)CO)cc12 [compound 1, PF-00835231]	7.47 ± 0.88	–	–	–
COc1cccc2[nH]c(C(=O)N[C@@H](CC(C)C)C(=O)N[C@H](C#N)C[C@@H]3CCNC3=O)cc12 [compound 2, N-[(2S)-1-({(1S)-1-Cyano-2-[(3S)-2-oxopyrrolidin-3-yl]ethyl}amino)-4-methyl-1-oxopentan-2-yl]-4-methoxy-1H-indole-2-carboxamide]	34.4 ± 0.7	–	–	–
CC(C)(C)[C@H](NC(=O)C(F)(F)F)C(=O)N1C[C@H]2[C@@H]([C@H]1C(=O)N[C@H](C#N)C[C@@H]1CCNC1=O)C2(C)C [compound 6, (1R,2S,5S)-N-{(1S)-1-Cyano-2-[(3S)-2-oxopyrrolidin-3-yl]ethyl}-6,6-dimethyl-3-[3-methyl-N-(trifluoroacetyl)-L-valyl]-3-azabicyclo[3.1.0]hexane-2-carboxamide]	–	> 100	> 100	> 100
CC(C)[C@H](NS(C)(=O)=O)C(=O)N1C[C@H]2[C@@H]([C@H]1C(=O)N[C@@H](C[C@@H]1CCNC1=O)C(=O)c1nc3ccccc3s1)C2(C)C [compound 4, (1R,2S,5S)-N-{(2S)-1-(1,3-Benzothiazol-2-yl)-1-oxo-3-[(3S)-2-oxopyrrolidin-3-yl]propan-2-yl}-6,6-dimethyl-3-[N-(methylsulfonyl)-L-valyl]-3-azabicyclo[3.1.0]hexane-2 carboxamide]	127 ± 3	–	–	–
